{"source": "paper PMC6452685", "about": "“Lysyl-tRNA synthetase as a drug target in malaria and cryptosporidiosis” (Proceedings of the National Academy of Sciences of the …, 2019)", "key": {"CYP2C9": {"molecular_target": "T1, CYP2C9 (Homo sapiens, UniProt P11712)", "T1 construct": "purchased Cypex, Dundee, UK; host or cells: bacterial membranes (bactosomes)", "T1 sequence (P11712 whole entry)": "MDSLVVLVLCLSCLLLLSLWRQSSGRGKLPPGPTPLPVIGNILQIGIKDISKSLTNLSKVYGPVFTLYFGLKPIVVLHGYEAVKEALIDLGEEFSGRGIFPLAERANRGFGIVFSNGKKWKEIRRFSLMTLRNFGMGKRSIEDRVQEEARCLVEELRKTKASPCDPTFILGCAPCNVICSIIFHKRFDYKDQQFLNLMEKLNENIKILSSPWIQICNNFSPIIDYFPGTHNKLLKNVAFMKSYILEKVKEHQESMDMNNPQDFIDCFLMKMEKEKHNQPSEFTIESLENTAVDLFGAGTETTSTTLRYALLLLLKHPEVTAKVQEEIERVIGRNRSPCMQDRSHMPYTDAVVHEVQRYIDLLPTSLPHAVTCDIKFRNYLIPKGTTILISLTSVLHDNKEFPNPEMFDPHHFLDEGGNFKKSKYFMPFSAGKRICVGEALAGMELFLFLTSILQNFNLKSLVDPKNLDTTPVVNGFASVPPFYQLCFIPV", "experiment": "Fluorescence-based CYP inhibition, CYP2C9", "type": "in vitro ADME", "experimental": "(§1) 4.7 F lu or e s ce nce-based CYP I nhibition usin g recombinantly expressed CYP b actosomes Fl uorogeni c C YP i nhi bi t i on s t udi es w ere c ondu ct ed at 37 °C i n 96-well, flat-bot t om, cl ear p ol y s t y rene pl at es. I ncubat i on mi xt ures cont ai ni ng Eas y C YP bact os omes (1000 pmol /ml , 10 mg /ml C y pex TM, Dundee, UK), fl uorogeni c substrate (Cypex TM) and 50 mM potas s i um phosphat e buffer (p H 7. 4) w er e prepared at t he fol l ow i ng fi nal concent rat i ons : C YP1A2, 5 pmol /ml + 35 µ M et hox y res orufi n (ER) ; CYP2C9, 10 pm ol/ml + 30 µM 7-methoxy-4-(tri fl uo romethy l )-coumari n (MFC ); C YP 2C 19, 5 pm ol /ml + 25 µM 3-cy ano-7-eth oxycoumarin (CEC); C YP 2D 6, 10 pmol /ml + 6 µM 7-meth oxy-4-(ami nomethy l )- coumari n (MAMC ); C YP 3A4, 10 pmol /ml + 1 µM diethoxyfluorescein (DEF) and 10 pmol /ml + 15 µM 7-benz y l ox y qui nol i ne (BQ ). […] 0125 ( 1A2 and 2C 9 onl y ) o r 0. 025 mg /ml (al l ot her i s oforms ). […] Positive control inhibitor, miconazole, was prepared as a 500 µM s olution in DMSO and similarly diluted.\n(§2) For eac h i sofo rm, 2 20 µl of i ncubati on mi x was added to each wel l of a 96-well, flat-bot t om, cl ear pol y s t y rene pl at e. Al i quot s (5 µl) of each compound 5 conce ntrati on was then mi x ed wi th 220 µl of the incubation mix and pre-incubated at 37 °C for 5 min (final test compound concentration range: […]"}, "CYP2C19": {"molecular_target": "T2, CYP2C19 (Homo sapiens, UniProt P33261)", "T2 construct": "purchased Cypex, Dundee, UK; host or cells: bacterial membranes (bactosomes)", "T2 sequence (P33261 whole entry)": "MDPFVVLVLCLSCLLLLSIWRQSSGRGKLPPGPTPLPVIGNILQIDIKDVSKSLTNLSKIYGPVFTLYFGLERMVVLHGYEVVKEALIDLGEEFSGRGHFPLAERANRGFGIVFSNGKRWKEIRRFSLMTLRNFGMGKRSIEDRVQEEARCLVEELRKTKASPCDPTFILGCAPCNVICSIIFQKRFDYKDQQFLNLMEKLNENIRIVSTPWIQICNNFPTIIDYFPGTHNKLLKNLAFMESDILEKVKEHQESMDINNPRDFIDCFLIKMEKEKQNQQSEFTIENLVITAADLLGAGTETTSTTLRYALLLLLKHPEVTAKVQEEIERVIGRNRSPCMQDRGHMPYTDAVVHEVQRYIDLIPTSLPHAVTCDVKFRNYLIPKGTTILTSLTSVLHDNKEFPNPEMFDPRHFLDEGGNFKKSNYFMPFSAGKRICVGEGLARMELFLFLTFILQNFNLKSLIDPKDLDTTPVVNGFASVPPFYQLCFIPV", "experiment": "Fluorescence-based CYP inhibition, CYP2C19", "type": "in vitro ADME", "experimental": "as §1, §2"}, "Pf(K1)": {"test_system": "Pf(K1)", "experiment": "Drug resistant P. falciparum K1, [3H]-hypoxanthine incorporation", "type": "cell-based", "settings": "Plasmodium falciparum, chloroquine-resistant", "from_the_text": "3.2 Cytotoxicity Studies (Dundee)\nIn vi t ro cy totox i ci ty s tudies can be ca rri ed out us i ng Hep G 2 (Human C aucas i an hepatocy te ca rci noma, ECACC cat. no. 850 114 30) us ed as i ndi cators f or g eneral mammal i an cel l tox i ci ty . […]\n3.3 In vitro Cell Assay D ata Analysis (Du ndee) […]\nas 0%. Qual i ty control c ri teri a for passi ng pl ates were as fol l ow s : Z’ > 0.\n< 15 . T he f ormula used to calculate Z’ is 1- 3´ (St D e v _ hi gh + St D e v_ low) . […]\nAl l EC50 Curve fitti ng was undertaken usi ng XLFi t versi on 4.2 usi ng Model 205 wi th the foll owi ng 4 paramet ri c equat i on: A + (?-A) ,where A=% i nhi bi ti on at bo ttom, B=% i nhi bi ti on at top, C= EC , […]\nD= slope, x= inhibitor concentration a nd y= % inhibition. […]\nwas fixed to 100 only when at least 50% of inhibition was reached. […]\nHoffmann-La Ro che Ltd) a nd resi stant strai ns K1 and TM90C2B (fr om the Malaria Research an d Reference Reag ent Res ou rce C enter, accu rate d es cri pti ons of the g eneti c backg roun ds of thes e strains can be obtained at http://www.beiresources.org) were cultivated in a variation of the medium prev i ous l y des cri bed (5, 6), c onsi sti ng of RPMI 16 40 su ppl emented wi th 0.5% ALBUMAX® II, 25 m M Hepes , 25 mM NaHC O3 (pH 7. […] The re s ul t s were recorded and expressed as a percentage of the untreated controls. […]"}}}
{"smiles": "O=C(NCC1(O)CCC(F)(F)CC1)c1cc(=O)c2cc(F)ccc2o1", "note": "[Compound 5]", "values": [{"measurement": "IC50", "setting": "CYP2C9", "result": "> 10", "unit": "µM"}, {"measurement": "IC50", "setting": "CYP2C19", "result": "> 10", "unit": "µM"}, {"measurement": "EC50", "setting": "Pf(K1)", "result": 0.51, "unit": "µM"}]}
